The results in this text go back to patent US20250059205A1, “Heterocyclic Compounds and Methods of Use” (AMGEN INC., priority 2021, published 2025).

Experiment [1] relates to Phosphorylation of ERK1/2 in A-427 cells. The experiment can be described thus: Phospho-ERK1/2 MSD Assay (A-427 cells). Type of experiment: cell-based. The note with it: Homo sapiens, A-427, 2 h, 2 h treatment, read-out: p-ERK (A427 cells) IC50. Summed up: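 ERK1/2 phosphorylation measured by Meso Scale whole-cell lysate assay after A-427 cells were exposed to a titration of compound for 2 h at 37 °C.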

Experiment [2] has as its target His-tagged KRAS G12D protein (Homo sapiens, UniProt P01116, G12D). The experiment can be described thus: KRAS G12D TR-FRET Assay. In kind it is binding.
Experiment [3] has as its target GDP-bound KRAS protein (aa 1-169), containing both G12D and C118A amino acid substitutions (Homo sapiens, UniProt P01116, C118A/G12D). The experiment can be described thus: KRAS G12D Coupled Nucleotide Exchange Assay. Type of experiment: biochemical. The note with it: 2 h compound pre-incubation. Here is the method:
Following compound pre-incubation, purified SOS protein (aa 564-1049) and GTP (Roche 10106399001) were added to the assay wells and incubated for an additional 30 min. […] The assay plates were then read on a PerkinElmer EnVision Multilabel Reader, using AlphaScreen® technology, and data were analyzed using a 4-parameter logistic model to calculate IC50 values.

In experiment [4] the test system is Phosphorylation of ERK1/2 in AsPC-1 cells. Description: Phospho-ERK1/2 MSD Assay (AsPC-1 cells). Type of experiment: cell-based. The note with it: Homo sapiens, ASPC1, 2 h, 2 hours treatment, read-out: p-ERK (AsPC-1 cells) IC50. Summed up: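 Read-out: MSD electrochemiluminescent detection of phosphorylated ERK1/2 in whole-cell lysates, fitted to a 4-parameter logistic curve for IC50. Prior to lysis, AsPC-1 cells (25,000 per well) received a 2 h compound dose-response at 37 °C.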

His-tagged KRAS G12D protein, sequence (P01116 1-188 isoform P01116-2 G12D): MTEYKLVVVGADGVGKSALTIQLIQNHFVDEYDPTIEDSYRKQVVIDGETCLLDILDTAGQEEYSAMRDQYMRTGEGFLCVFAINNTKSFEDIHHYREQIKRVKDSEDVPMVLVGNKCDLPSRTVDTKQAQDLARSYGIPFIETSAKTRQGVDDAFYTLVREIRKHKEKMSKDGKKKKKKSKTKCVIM
GDP-bound KRAS protein (aa 1-169), containing both G12D and C118A amino acid substitutions, sequence (P01116 1-169 isoform P01116-2 G12D/C118A): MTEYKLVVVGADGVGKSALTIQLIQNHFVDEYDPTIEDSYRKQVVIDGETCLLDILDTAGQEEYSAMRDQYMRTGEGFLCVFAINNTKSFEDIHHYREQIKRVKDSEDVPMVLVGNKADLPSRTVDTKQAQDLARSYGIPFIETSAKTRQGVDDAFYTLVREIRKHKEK

By IC50 is commonly meant the concentration needed to halve the response being measured. On to `CCc1c(F)ccc2cc(O)cc(-c3ccc4c(N5[C@@H]6CNC[C@H]5COC6)nc(OC[C@@]56CCCN5C[C@H](F)C6)nc4c3F)c12` [Example 152, 4-(4-((1R,5S)-3-oxa-7,9-diazabicyclo[3.3.1]nonan-9-yl)-8-fluoro-2-(((2R,7aS)-2-fluorotetrahydro-1H-pyrrolizin-7a(5H)-yl)methoxy)quinazolin-7-yl)-5-ethyl-6-fluoronaphthalen-2-ol], for which the figures for the IC50 in experiment [1], in experiment [2] and in experiment [4] were 73 nM, 5 nM and 76 nM, respectively. Besides, the “Avg 2 h Coupled Exchange IC50” value in experiment [3] is 4 nM.

For the compound `CN1C[C@H](F)C[C@H]1COc1nc(N2[C@@H]3CNC[C@H]2COC3)c2ccc(-c3cc(O)cc4ccccc34)c(F)c2n1` [Example 6, 4-(4-((1R,5S)-3-oxa-7,9-diazabicyclo[3.3. 1]nonan-9-yl)-8-fluoro-2-(((2S,4R)-4-fluoro-1-methylpyrrolidin-2-yl)methoxy)quinazolin-7-yl)naphthalen-2-ol], the IC50 worked out at 2310 nM in experiment [1], 49 nM in experiment [2] and 5130 nM in experiment [4]. Moreover, the “Avg 2 h Coupled Exchange IC50” value in experiment [3] came out at 22 nM.

Turning to `CCc1c(F)ccc2cc(O)cc(-c3c(F)cc4c(N5C[C@H]6CC[C@@H](C5)N6)nc(OCC56CCCN5CC(F)(F)C6)nc4c3F)c12` (stereo partly drawn) [Example 128, 4-(4-((1R,5S)-3,8-diazabicyclo[3.2.1]octan-3-yl)-2-((2,2-difluorotetrahydro-1H-pyrrolizin-7a(5H)-yl)methoxy)-6,8-difluoroquinazolin-7-yl)-5-ethyl-6-fluoronaphthalen-2-ol], the values for the IC50 in experiment [1], in experiment [2] and in experiment [4] were 308 nM, 3 nM and 243 nM, respectively. Besides, the “Avg 2 h Coupled Exchange IC50” value in experiment [3] worked out at 4 nM.

`C=C(C)c1ccc2[nH]ncc2c1-c1ccc2c(N3C[C@H]4CC[C@@H](C3)N4)nc(OC[C@@]34CCCN3C[C@H](F)C4)nc2c1F` [Example 198, 4-((1R,5S)-3,8-Diazabicyclo[3.2.1]octan-3-yl)-8-fluoro-2-(((2R,7aS)-2-fluorotetrahydro-1H-pyrrolizin-7a(5H)-yl)methoxy)-7-(5-(prop-1-en-2-yl)-1H-indazol-4-yl)quinazoline]: the IC50 in experiment [1] was 5270 nM; in experiment [2], 42 nM; in experiment [4], 2930 nM. Besides, the “Avg 2 h Coupled Exchange IC50” value in experiment [3] was 18 nM.

`CN1CCC[C@H]1CCOc1nc(N2C[C@H]3C[C@@H](C2)N3)c2cc(F)c(-c3cc(O)cc4ccccc34)c(F)c2n1` [Example 21, 4-(4-((1R,5S)-3,6-diazabicyclo[3.1. 1]heptan-3-yl)-6,8-difluoro-2-(2-((S)-1-methylpyrrolidin-2-yl)ethoxy)quinazolin-7-yl)naphthalen-2-ol]: the IC50 in experiment [1] is 18100 nM; in experiment [2], 314 nM; in experiment [4], 9080 nM. The “Avg 2 h Coupled Exchange IC50” value in experiment [3] was 78 nM.

Consider `Cc1c(-c2cc(O)cc3ccccc23)ccc2c(N3C[C@H]4C[C@@H](C3)N4)nc(OC[C@@]34CCCN3C[C@H](F)C4)nc12` [Example 5, 4-(4-((1R,5S)-3,6-diazabicyclo[3.1. 1]heptan-3-yl)-2-(((2R,7aS)-2-fluorotetrahydro-1H-pyrrolizin-7a(5H)-yl)methoxy)-8-methylquinazolin-7-yl)naphthalen-2-ol], for which the IC50 is 2150 nM in experiment [1], 43 nM in experiment [2] and 2970 nM in experiment [4]. The “Avg 2 h Coupled Exchange IC50” value in experiment [3] was found to be 19 nM.

Regarding `Oc1cc(-c2cc3nc(OC[C@@]45CCCN4C[C@H](F)C5)nc(N4C[C@H]5CC[C@@H](C4)N5)c3cc2F)c2c(F)c(F)ccc2c1` [Example 82, 4-(4-((1R,5S)-3,8-diazabicyclo[3.2. 1]octan-3-yl)-6-fluoro-2-(((2R,7aS)-2-fluorotetrahydro-1H-pyrrolizin-7a(5H)-yl)methoxy)quinazolin-7-yl)-5,6-difluoronaphthalen-2-ol], the IC50 in experiment [1] is 42 nM; in experiment [2], 2 nM; in experiment [4], 138 nM. In experiment [3], the “Avg 2 h Coupled Exchange IC50” value was 2 nM.

In the case of `CCc1c(F)ccc2cc(O)cc(-c3ccc4c(N5C[C@H]6COC[C@@H](C5)N6)nc(OC[C@@]56CCCN5C[C@H](F)C6)nc4c3F)c12` [Example 138, 4-(4-((1R,5S)-3-oxa-7,9-diazabicyclo[3.3.1]nonan-7-yl)-8-fluoro-2-(((2R,7aS)-2-fluorotetrahydro-1H-pyrrolizin-7a(5H)-yl)methoxy)quinazolin-7-yl)-5-ethyl-6-fluoronaphthalen-2-ol], the values for the IC50 in experiment [1], in experiment [2] and in experiment [4] were 72 nM, 3 nM and 216 nM, respectively. For the same compound, the “Avg 2 h Coupled Exchange IC50” value in experiment [3] amounted to 4 nM.

For `Oc1cc(-c2ccc3c(N4[C@@H]5CC[C@H]4CNC5)nc(OC[C@]45CCCN4C[C@H](F)C5)nc3c2F)c2ccccc2c1` [Example 3, 4-(4-((1R,5S)-3,8-diazabicyclo[3.2. 1]octan-8-yl)-8-fluoro-2-(((2R,7aR)-2-fluorotetrahydro-1H-pyrrolizin-7a(5H)-yl)methoxy)quinazolin-7-yl)naphthalen-2-ol], the IC50 in experiment [1] came to 650 nM; in experiment [2], 10 nM; in experiment [4], 812 nM. In experiment [3], the “Avg 2 h Coupled Exchange IC50” value worked out at 5 nM.

For the compound `N#Cc1ccc2[nH]ncc2c1-c1ccc2c(N3C[C@H]4CC[C@@H](C3)N4)nc(OC[C@@]34CCCN3C[C@H](F)C4)nc2c1F` [Example 197, 4-(4-((1R,5S)-3,8-Diazabicyclo[3.2.1]octan-3-yl)-8-fluoro-2-(((2R,7aS)-2-fluorotetrahydro-1H-pyrrolizin-7a(5H)-yl)methoxy)quinazolin-7-yl)-1H-indazole-5-carbonitrile], the IC50 in experiment [1] was 4030 nM; in experiment [2], 108 nM; in experiment [4], > 10000 nM. The “Avg 2 h Coupled Exchange IC50” value in experiment [3] stood at 54 nM.

Regarding `Oc1cc(-c2ccc3c(N4[C@@H]5CC[C@H]4CNC5)nc(OC[C@@]45CCCN4C[C@H](F)C5)nc3c2F)c2ncccc2c1` [Example 25, 8-(4-((1R,5S)-3,8-diazabicyclo[3.2. 1]octan-8-yl)-8-fluoro-2-(((2R,7aS)-2-fluorotetrahydro-1H-pyrrolizin-7a(5H)-yl)methoxy)quinazolin-7-yl)quinolin-6-ol], the IC50 in experiment [1] was 5050 nM; in experiment [2], 58 nM; in experiment [4] it was 14800 nM. Also, the “Avg 2 h Coupled Exchange IC50” value in experiment [3] worked out at 17 nM.

For `Cc1cc2[nH]ncc2c(-c2ccc3c(N4C[C@H]5CC[C@@H](C4)N5)nc(OC[C@@]45CCCN4C[C@H](F)C5)nc3c2)c1Cl` [Example 39, 4-((1R,5S)-3,8-diazabicyclo[3.2. 1]octan-3-yl)-7-(5-chloro-6-methyl-1H-indazol-4-yl)-2-(((2R,7aS)-2-fluorotetrahydro-1H-pyrrolizin-7a(5H)-yl)methoxy) quinazoline], the IC50 is 569 nM in experiment [1], 20 nM in experiment [2] and 1890 nM in experiment [4]. Also, the “Avg 2 h Coupled Exchange IC50” value in experiment [3] was 9 nM.

For `Oc1cc(-c2c(F)cc3c(N4C[C@@H]5CC[C@H]4CN5)nc(OC[C@@]45CCCN4C[C@H](F)C5)nc3c2F)c2ccccc2c1` [Example 48, 4-(4-((1S,4S)-2,5-diazabicyclo[2.2. 2]octan-2-yl)-6,8-difluoro-2-(((2R,7aS)-2-fluorotetrahydro-1H-pyrrolizin-7a(5H)-yl)methoxy)quinazolin-7-yl)naphthalen-2-ol], the IC50 in experiment [1] came to 43 nM; in experiment [2], 4 nM; in experiment [4], 157 nM. Also, the “Avg 2 h Coupled Exchange IC50” value in experiment [3] came out at 4 nM.

On to `Oc1cc(Cl)c(C2CC2)c(-c2c(F)cc3c(N4C[C@H]5CC[C@@H](C4)N5)nc(OC[C@@]45CCCN4C[C@H](F)C5)nc3c2F)c1` [Example 144, 3-(4-((1R,5S)-3,8-diazabicyclo[3.2.1]octan-3-yl)-6,8-difluoro-2-(((2R,7aS)-2-fluorotetrahydro-1H-pyrrolizin-7a(5H)-yl)methoxy)quinazolin-7-yl)-5-chloro-4-cyclopropylphenol], for which the IC50 in experiment [1] is 23 nM; in experiment [2] it was 3 nM; in experiment [4], 41 nM. Moreover, the “Avg 2 h Coupled Exchange IC50” value in experiment [3] worked out at 3 nM.

With `CCc1c(F)ccc2cc(O)cc(-c3c(F)cc4c(N5CCC6CCC(C5)N6)nc(OC[C@@]56CCCN5C[C@H](F)C6)nc4c3F)c12` (stereo partly drawn) [Example 153, 4-(4-(3,9-diazabicyclo[4.2.1]nonan-3-yl)-6,8-difluoro-2-(((2R,7aS)-2-fluorotetrahydro-1H-pyrrolizin-7a(5H)-yl)methoxy)quinazolin-7-yl)-5-ethyl-6-fluoronaphthalen-2-ol], the figures for the IC50 in experiment [1], in experiment [2] and in experiment [4] were 349 nM, 6 nM and 419 nM, respectively. The “Avg 2 h Coupled Exchange IC50” value in experiment [3] was found to be 3 nM.

For `CC(C)(O)COc1nc(N2C[C@H]3CC[C@@H](C2)N3)c2cc(F)c(-c3cc(O)cc4ccccc34)c(F)c2n1` [Example 64, 4-(4-((1R,5S)-3,8-diazabicyclo[3.2. 1]octan-3-yl)-6,8-difluoro-2-(2-hydroxy-2-methylpropoxy)quinazolin-7-yl)naphthalen-2-ol], the IC50 in experiment [1] turned out to be 5050 nM; in experiment [2], 51 nM; in experiment [4] it was 7030 nM. Moreover, the “Avg 2 h Coupled Exchange IC50” value in experiment [3] was 17 nM.
